The source of these data is patent US10391070B2, “Compositions and methods for treating neurological diseases or injury” (MUSC FOUNDATION FOR RESEARCH DEVELOPMENT, priority 2012, dated 2019).

One data set deals with HT22 cells. Briefly: In vitro neuroprotective activity against glutamate-induced cell death (MTS cell viability). The format is cell-based, mouse. The settings on record: Mus musculus, HT-22; HT22 cells, 10 mM glutamate, 24 hrs, MTS; concentration producing 50% protection; read-out: Protection PC50. How it is done:
(§1) The HT22 neuronal cell line is a subclone of HT4, derived from the mouse hippocampus (Morimoto and Koshland, 1990). […] HT22 cells were used. The cells were grown in Dulbecco's Modified Eagle's medium (DMEM/high glucose) supplemented with 10% fetal bovine serum (Hyclone) and 5 mL Antibiotic-Antimycotic (Amphotericin B, Penicillin, and Streptomycin; Invitrogen) at 37° C. in 5% CO2.
(§2) Cell viability was assessed by the ability of the viable cells to metabolize 3-(4,5-dimethylthiazol-2-yl)-5-(3-carboxymethoxyphenyl)-2(4-sulfophenyl)2-H-tetrazolium, inner salt (MTS), as described previously (Cory et al., 1991). The metabolism of tetrazolium salts is often used to measure cellular proliferation, but in the system used here, it has been previously shown to correlate well with cell viability as determined by trypan blue exclusion and colony-forming assays (Davis and Maher, 1994). Briefly, HT-22 cells were seeded onto 96-well plates at 5.0×10^3 cells per well in 75 μL of medium and maintained at 37° C. in 5% CO2 overnight prior to the initiation of experimental treatments. For glutamate toxicity testing, cells were subsequently treated with 25 μL of medium containing glutamate (monosodium glutamate, Sigma, 1 M stock concentration in media, to achieve a final concentration of 10 mM) plus inhibitors (stock in DMSO) and maintained at 37° C. in 5% CO2. For t-BuOOH toxicity testing, cells were subsequently treated with 25 μL of medium containing t-BuOOH (Sigma, 10 mM stock concentration, to achieve a final concentration of 50 μM) plus inhibitors (stock in DMSO) and maintained at 37° C. in 5% CO2 for 3 hours, after which the media was removed, cells washed gently with HBSS, the media replaced with standard culture media, and the cells returned to incubation at 37° C. in 5% CO2. For both glutamate and t-BuOOH treatments, 10 μl of MTS solution was added to each well 24 hrs after initial treatment, and the cells were maintained in growth medium for 2 h at 37° C. Absorbance at 490 nm was subsequently measured by a SpectraMax 190 plate reader (Molecular Devices). The growth medium without cells in the presence of MTS solution was used as solution background and untreated cells were considered the controls. Cell viability was calculated as a percentage compared with untreated controls. EC50 determinations were based on 12-point titrations using GraphPad Prism, and each experiment was repeated at least four times. Morphology of HT22 cells following treatments was determined by phase-contrast microscopy. Digital images of cells grown on cell culture plates were captured at 10× magnification.
The neuroprotective properties of VK and its derivatives were estimated through their protective effects against cell death in mouse neuronal HT22 cells induced by exposure to high levels of glutamate, which recapitulates a hallmark of the extracellular environment found in several neurodegenerative diseases and CNS injuries and is a well established model of neuronal oxidative stress. This investigation began by comparing the relative abilities of the two predominant naturally occurring forms of VK, VK1 and VK2, to prevent oxidative cell death. […] Several 1,4-naphthoquinones with various substitutions at the 2′ and 3′ positions were tested to determine the minimum structural requirement of the system and what the optimum scaffold for future developmental efforts and biological validation would be (FIG. 1B and Table 1). […] Substitution by a single methyl group at the 2′ position (VK3) improves the compound's ability to protect against cell death. Various other simple substituents at the 2′ and 3′ positions give the naphthoquinone structure the ability to prevent oxidative cell death at nanomolar concentrations (Table 1 and FIG. 16).
`CCCNC1=CC(=O)c2ccccc2C1=O` [Compound 2e, 2-(propylamino)naphthalene-1,4-dione]: the EC50 was determined as 328 nM.

With `O=C1C=C(NC2CCCC2)C(=O)c2ccccc21` [Compound 2f, 2-(cyclopentylamino)naphthalene-1,4-dione], the EC50 came out at 409 nM.

As to `O=C1C=C(NCC2CCCCC2)C(=O)c2ccccc21` [Compound 2g, 2-((cyclohexylmethyl)amino)naphthalene-1,4-dione], the EC50 was 54 nM.

Consider `CN(Cc1ccccc1)C1=CC(=O)c2ccccc2C1=O` [Compound 2k, 2-(benzyl(methyl)amino)naphthalene-1,4-dione], for which the EC50 was found to be 128 nM.

As for `O=C1C=C(NCCc2ccccc2)C(=O)c2ccccc21` [Compound 2l], the EC50 amounted to 584 nM.

Take `O=C1C=C(NCc2ccncc2)C(=O)c2ccccc21` [Compound 2m, 2-((pyridin-4-ylmethyl)amino)naphthalene-1,4-dione]: the EC50 is 72 nM.

In the case of `O=C1C=C(NCc2cccnc2)C(=O)c2ccccc21` [Compound 2n, 2-((pyridin-3-ylmethyl)amino)naphthalene-1,4-dione], the EC50 is 215 nM.

On to `O=C1C=C(NCc2ccccn2)C(=O)c2ccccc21` [Compound 2o, 2-((pyridin-2-ylmethyl)amino)naphthalene-1,4-dione], for which the EC50 was 933 nM.

Turning to `O=C1C=C(NCc2ccc(Cl)cc2)C(=O)c2ccccc21` [Compound 2p, 2-((4-chlorobenzyl)amino)naphthalene-1,4-dione], the EC50 stood at 59 nM.

With `COc1ccc(CNC2=CC(=O)c3ccccc3C2=O)cc1` [Compound 2s, 2-((4-methoxybenzyl)amino)naphthalene-1,4-dione], the EC50 is 114 nM.

Consider `COC(=O)c1ccc(CNC2=CC(=O)c3ccccc3C2=O)cc1` [Compound 2t, methyl 4-(((1,4-dioxo-1,4-dihydronaphthalen-2-yl)amino)methyl)benzoate], for which the EC50 was 232 nM.

For `O=C1C=C(NCc2cccc(C(F)(F)F)c2)C(=O)c2ccccc21` [Compound 2u, 2-((3-(trifluoromethyl)benzyl)amino)naphthalene-1,4-dione], the EC50 turned out to be 45 nM.

On to `O=C1C=C(NCc2ccc(Cl)c(Cl)c2)C(=O)c2ccccc21` [Compound 2v, 2-((3,4-dichlorobenzyl)amino)naphthalene-1,4-dione], for which the EC50 was 46 nM.

For the compound `CC(=O)NC1=CC(=O)c2ccccc2C1=O` [Compound 3a, N-(1,4-dioxo-1,4-dihydronaphthalen-2-yl)acetamide], the EC50 stood at 616 nM.

As to `CCC(=O)NC1=CC(=O)c2ccccc2C1=O` [Compound 3b, N-(1,4-dioxo-1,4-dihydronaphthalen-2-yl)propionamide], the EC50 was found to be 760 nM.

As for `COC(=O)NC1=CC(=O)c2ccccc2C1=O` [Compound 3c, methyl(1,4-dioxo-1,4-dihydronaphthalen-2-yl)carbamate], the EC50 was 69 nM.

System in the next data set: not listed separately
Put plainly: In vitro neurotoxicity without glutamate (MTS cell viability). The settings on record: mouse; HT22 cells without glutamate, 24 hrs, MTS; concentration producing 50% toxicity; read-out: Toxicity TC50. In kind it is cell-based, mouse. On the procedure: as §1, §2
Consider `CC(=O)NC1=CC(=O)c2ccccc2C1=O` [Compound 3a, N-(1,4-dioxo-1,4-dihydronaphthalen-2-yl)acetamide], for which the CC50 at 24 h was greater than 100 µM.

Take `CCC(=O)NC1=CC(=O)c2ccccc2C1=O` [Compound 3b, N-(1,4-dioxo-1,4-dihydronaphthalen-2-yl)propionamide]: the CC50 at 24 h is 80 µM.

Regarding `COC(=O)NC1=CC(=O)c2ccccc2C1=O` [Compound 3c, methyl(1,4-dioxo-1,4-dihydronaphthalen-2-yl)carbamate], the CC50 at 24 h was found to be 5 µM.

Another data set concerns HT22 cells. The description is as above. In kind it is cell-based, mouse. Conditions: HT22 cells. On the procedure: as §1, §2
As for `CCCNC1=CC(=O)c2ccccc2C1=O` [Compound 2e, 2-(propylamino)naphthalene-1,4-dione], the “Safety Index TC50/PC50” value came to 91.

As to `O=C1C=C(NC2CCCC2)C(=O)c2ccccc21` [Compound 2f, 2-(cyclopentylamino)naphthalene-1,4-dione], the “Safety Index TC50/PC50” value was 108.

For the compound `O=C1C=C(NCC2CCCCC2)C(=O)c2ccccc21` [Compound 2g, 2-((cyclohexylmethyl)amino)naphthalene-1,4-dione], the “Safety Index TC50/PC50” value is listed as 1,852.

Take `CN(Cc1ccccc1)C1=CC(=O)c2ccccc2C1=O` [Compound 2k, 2-(benzyl(methyl)amino)naphthalene-1,4-dione]: the “Safety Index TC50/PC50” value turned out to be 781.

As for `O=C1C=C(NCCc2ccccc2)C(=O)c2ccccc21` [Compound 2l], the “Safety Index TC50/PC50” value is 171.

For the compound `O=C1C=C(NCc2ccncc2)C(=O)c2ccccc21` [Compound 2m, 2-((pyridin-4-ylmethyl)amino)naphthalene-1,4-dione], the “Safety Index TC50/PC50” value was 1,111.

As to `O=C1C=C(NCc2cccnc2)C(=O)c2ccccc21` [Compound 2n, 2-((pyridin-3-ylmethyl)amino)naphthalene-1,4-dione], the “Safety Index TC50/PC50” value amounted to 172.

In the case of `O=C1C=C(NCc2ccccn2)C(=O)c2ccccc21` [Compound 2o, 2-((pyridin-2-ylmethyl)amino)naphthalene-1,4-dione], the “Safety Index TC50/PC50” value is listed as 54.

For the compound `O=C1C=C(NCc2ccc(Cl)cc2)C(=O)c2ccccc21` [Compound 2p, 2-((4-chlorobenzyl)amino)naphthalene-1,4-dione], the “Safety Index TC50/PC50” value was 1,695.

In the case of `COc1ccc(CNC2=CC(=O)c3ccccc3C2=O)cc1` [Compound 2s, 2-((4-methoxybenzyl)amino)naphthalene-1,4-dione], the “Safety Index TC50/PC50” value was 877.

Turning to `COC(=O)c1ccc(CNC2=CC(=O)c3ccccc3C2=O)cc1` [Compound 2t, methyl 4-(((1,4-dioxo-1,4-dihydronaphthalen-2-yl)amino)methyl)benzoate], the “Safety Index TC50/PC50” value is recorded as 431.

Turning to `O=C1C=C(NCc2cccc(C(F)(F)F)c2)C(=O)c2ccccc21` [Compound 2u, 2-((3-(trifluoromethyl)benzyl)amino)naphthalene-1,4-dione], the “Safety Index TC50/PC50” value was 2,222.

As for `O=C1C=C(NCc2ccc(Cl)c(Cl)c2)C(=O)c2ccccc21` [Compound 2v, 2-((3,4-dichlorobenzyl)amino)naphthalene-1,4-dione], the “Safety Index TC50/PC50” value is 2,174.

For the compound `CC(=O)NC1=CC(=O)c2ccccc2C1=O` [Compound 3a, N-(1,4-dioxo-1,4-dihydronaphthalen-2-yl)acetamide], the “Safety Index TC50/PC50” value is recorded as 162.

As to `CCC(=O)NC1=CC(=O)c2ccccc2C1=O` [Compound 3b, N-(1,4-dioxo-1,4-dihydronaphthalen-2-yl)propionamide], the “Safety Index TC50/PC50” value is 105.

For `COC(=O)NC1=CC(=O)c2ccccc2C1=O` [Compound 3c, methyl(1,4-dioxo-1,4-dihydronaphthalen-2-yl)carbamate], the “Safety Index TC50/PC50” value came out at 72.

Still in this data set, the particulars now being: HT22 cells without glutamate, 24 hrs, MTS; concentration producing 50% toxicity; read-out: Toxicity TC50.
Regarding `CCCNC1=CC(=O)c2ccccc2C1=O` [Compound 2e, 2-(propylamino)naphthalene-1,4-dione], the CC50 was 30 µM.

For the compound `O=C1C=C(NC2CCCC2)C(=O)c2ccccc21` [Compound 2f, 2-(cyclopentylamino)naphthalene-1,4-dione], the CC50 is 44 µM.

As for `O=C1C=C(NCC2CCCCC2)C(=O)c2ccccc21` [Compound 2g, 2-((cyclohexylmethyl)amino)naphthalene-1,4-dione], the CC50 was greater than 100 µM.

For the compound `CN(Cc1ccccc1)C1=CC(=O)c2ccccc2C1=O` [Compound 2k, 2-(benzyl(methyl)amino)naphthalene-1,4-dione], the CC50 is greater than 100 µM.

For `O=C1C=C(NCCc2ccccc2)C(=O)c2ccccc21` [Compound 2l], the CC50 is greater than 100 µM.

With `O=C1C=C(NCc2ccncc2)C(=O)c2ccccc21` [Compound 2m, 2-((pyridin-4-ylmethyl)amino)naphthalene-1,4-dione], the CC50 amounted to 80 µM.

For the compound `O=C1C=C(NCc2cccnc2)C(=O)c2ccccc21` [Compound 2n, 2-((pyridin-3-ylmethyl)amino)naphthalene-1,4-dione], the CC50 is 37 µM.

As for `O=C1C=C(NCc2ccccn2)C(=O)c2ccccc21` [Compound 2o, 2-((pyridin-2-ylmethyl)amino)naphthalene-1,4-dione], the CC50 amounted to 50 µM.

Take `O=C1C=C(NCc2ccc(Cl)cc2)C(=O)c2ccccc21` [Compound 2p, 2-((4-chlorobenzyl)amino)naphthalene-1,4-dione]: the CC50 was greater than 100 µM.

Regarding `COc1ccc(CNC2=CC(=O)c3ccccc3C2=O)cc1` [Compound 2s, 2-((4-methoxybenzyl)amino)naphthalene-1,4-dione], the CC50 is greater than 100 µM.

For `COC(=O)c1ccc(CNC2=CC(=O)c3ccccc3C2=O)cc1` [Compound 2t, methyl 4-(((1,4-dioxo-1,4-dihydronaphthalen-2-yl)amino)methyl)benzoate], the CC50 is greater than 100 µM.

With `O=C1C=C(NCc2cccc(C(F)(F)F)c2)C(=O)c2ccccc21` [Compound 2u, 2-((3-(trifluoromethyl)benzyl)amino)naphthalene-1,4-dione], the CC50 was greater than 100 µM.

Take `O=C1C=C(NCc2ccc(Cl)c(Cl)c2)C(=O)c2ccccc21` [Compound 2v, 2-((3,4-dichlorobenzyl)amino)naphthalene-1,4-dione]: the CC50 is greater than 100 µM.
